{"source": "patent US11388924B2", "about": "(priority 2018, dated 2022)", "key": {"[1]": {"conditions": "25° C., cited from earlier work"}, "[2]": {"test_system": "subjects"}, "[3]": {"excerpt": "The neutralization reaction in vegetable glycerin is less favorable in view of the reduced solubility of CO2 (Nunes et al., 2013—Solubility of CO2 in glycerol at high pressures. J. of Fluid Phase Equilibria; 358: 105-107).\nIn an embodiment of the present disclosure, the experimental setup described by Bihong, et al., 2015 (Mechanisms of CO2 Capture into Monoethanolamine Solution with Different CO2 Loading during the Absorption/Desorption Processes. J. of Environmental Science technology; 49 (17): 10728-10735) was implemented. […] In a further embodiment of the present disclosure, the neutralization with CO2 was performed at pressures ranging from about 0.1 MPa to about 2.7 MPa.\nThe organic acid is typically selected based on volatility under vaping conditions, tastelessness, low toxicity or nontoxicity to human health, ease of manipulation, ability to form liquid salts and […] an unpleasant sensation such as shortness of breath. In a further embodiment of the present disclosure, the organic acid is glycolic acid."}, "[4]": {"conditions": "20° C.; cited from earlier work"}, "[5]": {"conditions": "pH 7.4; cited from earlier work"}, "[6]": {"conditions": "after absorption through the lung; cited from earlier work"}, "[7]": {"conditions": "pig's nasal mucosa; cited from earlier work"}}, "note": "Read-outs that look alike come from different tables or passages of the source."}
{"smiles": "O=C=O", "note": "[CO2]", "values": [{"measurement": "number moles of CO2 dissolved", "setting": "[1]; acetone, 0.52 MPa", "value": 0.0876}, {"measurement": "number moles of CO2 dissolved", "setting": "[1]; ethanol, 0.41 MPa", "value": 0.0349}, {"measurement": "number moles of CO2 dissolved", "setting": "[1]; propylene glycol, 0.38 MPa", "value": 0.0100}]}
{"smiles": "O=C(O)CC(O)(CC(=O)O)C(=O)O", "note": "[citric acid]", "values": [{"measurement": "sensation produced by the acid used in the formulation", "setting": "[2]; in vivo", "value": "unpleasant feeling"}]}
{"smiles": "CC(O)C(=O)O", "note": "(stereo not shown) [lactic acid]", "values": [{"measurement": "sensation produced by the acid used in the formulation", "setting": "[2]; in vivo", "value": "unpleasant feeling"}]}
{"smiles": "O=C(O)CC(O)C(=O)O", "note": "(stereo not shown) [malic acid]", "values": [{"measurement": "sensation produced by the acid used in the formulation", "setting": "[2]; acid in nicotine formulations", "value": "unpleasant feeling"}]}
{"smiles": "CN1CCCC1c1cccnc1", "note": "(stereo not shown) [nicotine]", "values": [{"measurement": "pH reached by neutralization with CO2", "setting": "[3]; about 25° C., about 0.41 MPa", "value": "≤ 7.5"}, {"measurement": "final pH after neutralization with CO2", "setting": "[3]; in water", "value": 6.8}, {"measurement": "initial pH", "setting": "[3]; pure nicotine in propylene glycol, before neutralization", "value": "above 9.5"}, {"measurement": "burning sensation in the throat", "setting": "[2]; in vivo", "value": "diminishes or disappears"}, {"measurement": "feeling of shortness of breath", "setting": "[2]; in vivo", "value": "waned or disappeared"}, {"measurement": "pKa", "setting": "[4]", "value": 6.15}, {"measurement": "nicotine ionized", "setting": "[5]", "value": "~69", "unit": "%"}, {"measurement": "nicotine unionized", "setting": "[5]", "value": 31, "unit": "%"}, {"measurement": "estimated time to reach the brain", "setting": "[6]", "value": "10 to 20", "unit": "s"}, {"measurement": "permeation of the protonated form versus the unionized form", "setting": "[7]", "value": "higher than that for the unionized form"}]}
